Data taken from patent US5861405A, “S-substituted 1,3,7-trialkyl-xanthine derivatives” (priority 1994, dated 1999).
Converted amounts (≈) assume the structure as drawn. Like-named read-outs stand apart in the source and are kept apart here.

What was measured:
[1] = biological target: T1, rat A1 cortical receptors (Rattus norvegicus, UniProt P25099); assay: Radioligand binding, [3H]N6-phenylisopropyladenosine ([3H]PIA), rat cortical A1 receptors; conditions: for Ki: vs [3H]PIA (1 nM), read-out: Ki (A1); for inhibition at 10 µM: at 10^-5
T1 construct: Rat cerebral cortical membranes and striatal membranes were prepared; from tissue; host or cells: rat cerebral cortex membranes
T1 sequence (P25099 1-326): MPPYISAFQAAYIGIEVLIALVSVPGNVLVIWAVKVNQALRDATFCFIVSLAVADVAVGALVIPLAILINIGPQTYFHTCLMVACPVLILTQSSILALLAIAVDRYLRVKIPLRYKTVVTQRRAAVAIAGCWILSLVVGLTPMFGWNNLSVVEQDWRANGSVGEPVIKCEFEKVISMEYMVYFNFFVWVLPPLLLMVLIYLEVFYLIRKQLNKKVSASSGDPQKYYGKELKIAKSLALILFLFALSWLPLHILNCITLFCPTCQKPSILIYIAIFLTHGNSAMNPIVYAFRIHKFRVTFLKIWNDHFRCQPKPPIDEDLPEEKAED

[2] = biological target: rat striatal A2a receptors (Rattus norvegicus, UniProt P30543); assay: Radioligand binding, [3H]CGS 21680, rat striatal A2a receptors; design: Rat cerebral cortical membranes and striatal membranes were prepared; from tissue; host or cells: rat striatal membranes; conditions: for A1/A2a ratio: ratio of Ki values
[3] = biological target: A2 receptors, rat striatum; conditions: vs [3H]NECA in rat striatum; read-out: Ki (A2a), Shimada et al.; cited from earlier work
[4] = tested on: locomotor activity in mice; assay: Locomotor activity in mice, open field (Digiscan activity monitor); type: in vivo, mouse
[5] = Table I, vs [3H]CGS21680 (5 nM), rat striatal A2 receptors, read-out: Ki (A2a)
[6] = Table IV, vs [3H]CGS21680 (5 nM), read-out: Ki (A2)
[7] = Table III, vs [3H]CGS21680 (5 nM), read-out: Ki (A2)
[8] = 1.5 h, vs [3H]PIA, read-out: Percent displacement of specific binding (A1)
[9] = vs [3H]CGS 21680, read-out: Ki value / affinity at A2 receptors

rat striatal A2a receptors, sequence (P30543 whole entry): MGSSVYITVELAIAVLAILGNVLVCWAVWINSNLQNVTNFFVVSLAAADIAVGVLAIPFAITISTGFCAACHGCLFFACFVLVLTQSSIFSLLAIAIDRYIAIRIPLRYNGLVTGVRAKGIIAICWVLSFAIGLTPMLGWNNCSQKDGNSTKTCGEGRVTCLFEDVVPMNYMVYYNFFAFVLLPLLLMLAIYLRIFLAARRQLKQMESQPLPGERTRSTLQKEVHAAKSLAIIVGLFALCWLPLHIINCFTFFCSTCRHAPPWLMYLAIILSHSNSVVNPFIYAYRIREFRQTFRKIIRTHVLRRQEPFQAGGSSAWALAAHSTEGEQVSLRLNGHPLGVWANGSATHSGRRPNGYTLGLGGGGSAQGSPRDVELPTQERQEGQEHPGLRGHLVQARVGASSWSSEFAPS

Row | Ki ([1]; Table I, rat A1 receptors) [nM] | A1/A2a ratio ([2]; Table I) | Ki [2, 5] [nM] | SMILES | other results
1 | 10800 | 15 | 740 ± 77 | Cn1c(=O)c2c(nc(/C=C/c3cccc(N(C(=O)OC(C)(C)C)C(=O)OC(C)(C)C)c3)n2C)n(C)c1=O [Compound 26, 1,3,7-Trimethyl-8-[3-[di-(tert-butyloxycarbonyl)amino]styryl]xanthine] | reduction of potency at A2-receptors ([2]; very bulky 3-position substituents): roughly 20 fold
2 |  |  |  | COc1cccc2cc(-c3nc4c([nH]3)c(=O)n(C)c(=O)n4C)oc12 [Compound 58a] | Ki ([1]; Table IV): 1700 nM; A1/A2 ratio ([2]; Table IV): 0.5; Ki [2, 6]: 3900 nM
3 | 6920 | 34 | 206 ± 81 | COc1ccc(/C=C/c2nc3c(c(=O)n(C)c(=O)n3C)n2C)c(OC)c1OC [Compound 43b] | 
4 | 1730 | 2.7 | 645 ± 144 | COc1ccccc1/C=C/c1nc2c([nH]1)c(=O)n(C)c(=O)n2C [Compound 17a, 1,3-Dimethyl-8-(2-methoxystyryl)xanthine] | 
5 |  |  |  | CCC/C=C/c1nc2c(c(=O)n(C)c(=O)n2C)n1C [n-propyl(Rβ = H)] | Ki ([1]; Table III): 6000 nM; A1/A2 ratio ([2]; Table III): 3.8; Ki [2, 7]: 1600 nM
6 |  |  |  | Cn1c(=O)c2c(nc(/C=C/C(=O)Nc3ccccc3)n2C)n(C)c1=O [C(O)NH-phenyl(Rβ = H)] | Ki ([1]; Table III): 50000 nM; A1/A2 ratio ([2]; Table III): 19.8; Ki [2, 7]: 2530 nM
7 | 577 ± 42 |  |  | CCCn1c(=O)c2c(nc(/C=C/c3ccc(OC)c(OC)c3)n2C)n(CCC)c1=O [Compound 52b] | Ki [3]: 7.8 nM
8 | 1830 | 4.8 | 378 ± 155 | COc1cccc(/C=C/c2nc3c([nH]2)c(=O)n(C)c(=O)n3C)c1 [Compound 19a] | 
9 | 14200 | 44 | 327 ± 75 | COc1ccc(/C=C/c2nc3c(c(=O)n(C)c(=O)n3C)n2C)cc1 [Compound 29b, 1,3,7-Trimethyl-8-(4-methoxystyryl)xanthine] | 
10 |  |  |  | Cn1c(=O)c2c(ncn2C)n(C)c1=O [caffeine, 1,3,7-trimethylxanthine, reference compound] | Behavioral stimulation ([4]; mouse, in vivo, ip): +++
11 |  | > 200 | 75.3 ± 29.1 | COc1cc(/C=C/c2nc3c(c(=O)n(C)c(=O)n3C)n2C)cc(OC)c1 [Compound 33b, 1,3,7-Trimethyl-8-(3,5-dimethoxystyryl)xanthine] | inhibition at 10 µM [1, 8]: 12.5 ± 6.3%
12 |  | > 1 | 9270 | CN(C)c1ccc(/C=C/c2nc3c(c(=O)n(C)c(=O)n3C)n2C)cc1 [Compound 30b] | inhibition at 30 µM ([1]; 1.5 h, at 3 × 10^-5, vs [3H]PIA, read-out: Percent displacement of specific binding (A1)): 5.6%; potency or selectivity in binding, in words ([2]; rat A1 and A2 binding): displayed A2 -selectivity
13 | 5430 | 64 | 84.8 ± 24 | COc1cccc(/C=C/c2nc3c(c(=O)n(C)c(=O)n3C)n2C)c1 [Compound 19b] | Ki [2, 9]: 85 nM
14 | 2330 | 6.4 | 366 ± 77 | Cn1c(=O)c2[nH]c(/C=C/c3cc(F)cc(F)c3)nc2n(C)c1=O [Compound 34a] | 
15 | 6280 | 28 | 228 ± 20 | COc1cc(/C=C/c2nc3c(c(=O)n(C)c(=O)n3C)n2C)cc(OC)c1OC/C=C/CN [Compound 40] | 
16 | 382 ± 40 | 7.2 | 53 ± 15 | CCCn1c(=O)c2c(nc(/C=C/c3cc(F)cc(F)c3)n2C)n(CCC)c1=O [Compound 54b] | Ki [2, 9]: ≤ 50 nM
17 |  |  |  | Cn1c(=O)c2c(nc(/C=C/C(=O)O)n2C)n(C)c1=O [C(O)OH(Rβ = H), 8-(trans-2-Carboxyvinyl)-1,3,7-trimethylxanthine] | Ki ([1]; Table III): > 100000 nM; A1/A2 ratio ([2]; Table III): > 3; Ki [2, 7]: 30000 nM
18 | 1690 | 30 | 57 ± 3 | Cn1c(=O)c2c(nc(/C=C/c3cccc(N)c3)n2C)n(C)c1=O [Compound 22b, 1,3,7-Trimethyl-8-(3-aminostyryl)xanthine] | A2-selectivity ([2]; rat brain binding, this study): 30 fold
19 | 97 ± 19 | 1.5 | 64 ± 15.6 | CCCn1c(=O)c2[nH]c(/C=C/c3ccc(OC)c(OC)c3OC)nc2n(CCC)c1=O [Compound 55a] | 
20 |  | > 50 | 216 ± 40 | COc1cc(/C=C/c2nc3c(c(=O)n(C)c(=O)n3C)n2C)cc(OC)c1OC/C=C/CNC(C)=O [Compound 41] | inhibition at 10 µM [1, 8]: 17 ± 7%
21 |  | > 5 | 1610 | COc1ccc(/C=C/c2nc3c([nH]2)c(=O)n(C)c(=O)n3C)c(OC)c1OC [Compound 43a] | inhibition at 10 µM [1, 8]: 26 ± 10%
22 |  |  |  | Cn1c(=O)c2c(nc(CCc3cccc(N)c3)n2C)n(C)c1=O [Compound 57, 1,3,7-Trimethyl-8-[2-(3-aminophenyl)ethyl]xanthine] | inhibition at 10 µM [1, 8]: 15%; fold less potent at A2 receptors than 22b [2]: ~ 300 fold; Ki [2, 6]: 18000 nM
23 | 272 ± 68 | 4.8 | 56.2 ± 6.8 | CCCn1c(=O)c2c(nc(/C=C/c3cccc([N+](=O)[O-])c3)n2C)n(CCC)c1=O [Compound 48] | 
24 |  |  |  | COc1cc(/C=C/c2nc3c(c(=O)n(C)c(=O)n3C)n2CCO)cc(OC)c1OC [Compound 44d] | inhibition at 10 µM [1, 8]: 26 ± 9%; inhibition at 10 µM ([2]; 1 h, at 10^-5, vs [3H]CGS21680, read-out: Percent displacement of specific binding (A2a)): 22%
25 |  |  |  | CCCn1c(=O)c2[nH]c(C3CCCC3)nc2n(CCC)c1=O [CPX, 8-cyclopentyl-1,3-dipropyl-xanthine, reference compound] | locomotor stimulation, in words ([4]; mice): minimal depressant effect on locomotor activity
26 | 2370 | 61 | 38.6 ± 12.5 | Cn1c(=O)c2c(nc(/C=C/c3cccc(I)c3)n2C)n(C)c1=O [Compound 28c] | 
27 |  |  |  | OC[C@H]1O[C@@H](n2cnc3c(NC4CCCCC4)ncnc32)[C@H](O)[C@@H]1O [CHA, N^6 -cyclohexyladenosine, reference compound] | total distance traveled ([4]; CHA control 100 μg/kg i.p., n=9): 2090±438 cm/30 min; ED50 ([4]; Mus musculus, ip, CHA, i.p., read-out: ED50 for locomotor depression): 0.1 mg/kg
28 | 288 ± 60 | 1.4 | 202 ± 79 | Cn1c(=O)c2[nH]c(/C=C/c3cccc(N)c3)nc2n(C)c1=O [Compound 22a, 1,3-Dimethyl-8-(3-aminostyryl)xanthine] | 
29 | 4120 | 30 | 139 ± 7 | COc1cc(/C=C/c2nc3c(c(=O)n(C)c(=O)n3C)n2C)cc(OC)c1OCc1ccccc1 [Compound 37, 1,3,7-Trimethyl-8-(3,5-dimethoxy-4-benzyloxystyryl) xanthine] | 
30 | 4040 | 7.7 | 525 ± 220 | C#CCn1c(/C=C/c2cc(OC)c(OC)c(OC)c2)nc2c1c(=O)n(C)c(=O)n2C [Compound 44e] | 

Row | SMILES | Ki ([1]; Table I, rat A1 receptors) [nM] | A1/A2a ratio ([2]; Table I) | Ki [2, 5] [nM] | other results
31 | Cn1c(=O)c2c(nc(/C=C/c3cccc(NC(=O)CCC(=O)O)c3)n2C)n(C)c1=O [Compound 24, 1,3,7-Trimethyl-8-(3-succinylaminostyryl)xanthine] | 35100 | 250 | 143 ± 45 | solubility (Aqueous solubility; 0.1 m k2hpo4): 19 mM (≈ 7820 µg/mL); solubility (Aqueous solubility; 0.1 m potassium phosphate, pH 7.4): 19 mM (≈ 7820 µg/mL); Ki ([2]; Ki value / affinity at A2 receptors): 134 nM
32 | CCCn1c(=O)c2c(nc(/C=C/c3ccc(OC)c(OC)c3OC)n2C)n(CCC)c1=O [Compound 55b] | 379 ± 128 | 5.5 | 68.5 ± 12.6 | 
